{
  "source": "patent US20060147922A1",
  "about": "“Novel diagnostic and therapeutic methods and reagents therefor” (priority 2002, published 2006)",
  "key": {"EDD-CIB interaction": {"system": "EDD-CIB interaction", "test": "GST-CIB pull-down of EDD from MCF-7 nuclear extracts after DNA damaging agents", "assay_type": "cell-based, human", "experimental": "(D) Interaction of EDD and CIB in HEK 293 and MCF-7 cells. Left, HEK 293 cells overexpressing mutant EDD were transfected with a plasmid encoding Flag-tagged CIB or empty vector (vec). Extracts from these cells were subjected to immunoprecipitation using anti-FLAG Ab M2. Right, nuclear extracts prepared from MCF-7 cells following treatment with DNA damage agents phleomycin (Phleo) or hydroxyurea (HU) were incubated with either GST or GST-CIB fusion protein bound to glutathione-Sepharose beads. Bound proteins from both procedures were analysed by SDS-PAGE and western blotted for EDD and amounts bound are indicated as percentages relative to input.\nFor GST fusion protein pull-down of endogenous or recombinant EDD from cell lysates, 0.5 to 1 mg total protein was incubated with 5 μg GST or GST fusion protein bound to glutathione beads for 1-2 h at 4° C. Beads were washed extensively in 1% Triton X-100 lysis buffer and bound proteins resolved by SDS-PAGE and detected by immunoblotting with EDD antisera (Callaghan et al, Oncogene 17, 3479-3491, 1998). For immunoprecipitation, 10 μl importin α5 antisera (Peter Palese, Mount Sinai School of Medicine) was incubated with 0.5 to 1 mg cell lysate (4° C. for 1 h). Antibody conjugates were captured on protein A sepharose beads (4° C. for 1 h) and washed extensively in lysis buffer. […]"}, "BRCA2-chk2 interaction": {"system": "BRCA2-chk2 interaction", "test": "chk2 immunoprecipitation, western blot for BRCA2, from MCF-7 nuclear extracts after DNA damaging agents", "assay_type": "cell-based, human", "conditions": "phleomycin or hydroxyurea", "excerpt": "(§1) (B) Interactions between EDD, BRCA2 and chk2 are modified in response to DNA damaging agents. Nuclear extracts from MCF-7 cells that had been cultured in the presence of the radiomimetic phleomycin or the UV mimic hydroxyurea (HU), or from control MCF-7 cells, were subjected to immunoprecipitation with polyclonal chk2 antibody (N17). Following precipitation of immune complexes and extensive washing, bound proteins were separated by SDS-PAGE and western blotted for EDD, BRCA2 or chk2.\n(§2) MCF-7 cells were incubated in RPMI containing 0.5% foetal bovine serum for 18 h before addition of phleomycin (Cayla, France) at 100 μg/ml, hydroxyurea (Calbiochem, CA, USA) at 2 mM or PBS vehicle, for 6 h. Cells were harvested for total protein or nuclear protein extracts as described above."}, "EDD-chk2 interaction": {"system": "EDD-chk2 interaction", "test": "chk2 immunoprecipitation / GSTchk2-N pull-down of EDD from MCF-7 nuclear extracts after DNA damaging agents", "assay_type": "cell-based, human", "conditions": "for amount of EDD associating with chk2: MCF-7 nuclear extracts, phleomycin 100 μg/ml or hydroxyurea 2 mM", "experimental": "Nuclear extracts from MCF-7 cells that had been cultured in the presence of the radiomimetic phleomycin (100 μg per ml) or from control MCF-7 cells were immunoprecipitated with polyclonal CHK2 antibody (N17) or incubated with goat IgG as a negative control. Following precipitation of immune complexes and extensive washing, bound proteins were separated by SDS-PAGE and western blofted for EDD or CHK2.\n(C) Nuclear extracts from MCF-7 cells that had been cultured in the presence of phleomycin (100 μg per ml) or from control MCF-7 cells were incubated with GSTCHK2-N or with GST alone bound to glutathione-Sepharose beads. Bound proteins were separated by SDS-PAGE and immunoblotted for EDD and GST.\nas §1, §2"}, "PR(CDE)": {"target": "T1, PR(CDE) (Homo sapiens, UniProt P06401)", "T1 construct": "PR(CDE) (aa 456-933) regions into pGEX4T2 for GST fusion protein expression; made in house; host or cells: GST fusion from E. coli BL21; EDDF1 / SRC-1 by coupled in vitro transcription/translation (TNT Quick, Promega)", "T1 sequence (P06401 456-933)": "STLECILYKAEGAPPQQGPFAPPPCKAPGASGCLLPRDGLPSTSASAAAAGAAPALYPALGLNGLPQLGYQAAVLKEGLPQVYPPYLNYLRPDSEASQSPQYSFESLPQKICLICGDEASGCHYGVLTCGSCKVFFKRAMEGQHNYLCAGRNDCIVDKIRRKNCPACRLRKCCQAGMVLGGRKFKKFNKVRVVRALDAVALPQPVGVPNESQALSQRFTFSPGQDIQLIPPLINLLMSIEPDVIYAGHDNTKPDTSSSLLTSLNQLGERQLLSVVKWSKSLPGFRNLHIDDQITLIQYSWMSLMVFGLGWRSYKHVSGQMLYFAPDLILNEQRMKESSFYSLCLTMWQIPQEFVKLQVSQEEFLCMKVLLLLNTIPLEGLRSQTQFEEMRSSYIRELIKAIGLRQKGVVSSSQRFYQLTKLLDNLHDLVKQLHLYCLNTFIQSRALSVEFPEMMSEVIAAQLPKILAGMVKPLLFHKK", "test": "GST-PR(CDE) pull-down of in vitro translated EDDF1 or SRC-1", "assay_type": "binding", "conditions": "in vitro assays (data not shown)"}, "PR B": {"target": "T2, PR B (Homo sapiens, UniProt P06401)", "T2 sequence (P06401 1-933)": "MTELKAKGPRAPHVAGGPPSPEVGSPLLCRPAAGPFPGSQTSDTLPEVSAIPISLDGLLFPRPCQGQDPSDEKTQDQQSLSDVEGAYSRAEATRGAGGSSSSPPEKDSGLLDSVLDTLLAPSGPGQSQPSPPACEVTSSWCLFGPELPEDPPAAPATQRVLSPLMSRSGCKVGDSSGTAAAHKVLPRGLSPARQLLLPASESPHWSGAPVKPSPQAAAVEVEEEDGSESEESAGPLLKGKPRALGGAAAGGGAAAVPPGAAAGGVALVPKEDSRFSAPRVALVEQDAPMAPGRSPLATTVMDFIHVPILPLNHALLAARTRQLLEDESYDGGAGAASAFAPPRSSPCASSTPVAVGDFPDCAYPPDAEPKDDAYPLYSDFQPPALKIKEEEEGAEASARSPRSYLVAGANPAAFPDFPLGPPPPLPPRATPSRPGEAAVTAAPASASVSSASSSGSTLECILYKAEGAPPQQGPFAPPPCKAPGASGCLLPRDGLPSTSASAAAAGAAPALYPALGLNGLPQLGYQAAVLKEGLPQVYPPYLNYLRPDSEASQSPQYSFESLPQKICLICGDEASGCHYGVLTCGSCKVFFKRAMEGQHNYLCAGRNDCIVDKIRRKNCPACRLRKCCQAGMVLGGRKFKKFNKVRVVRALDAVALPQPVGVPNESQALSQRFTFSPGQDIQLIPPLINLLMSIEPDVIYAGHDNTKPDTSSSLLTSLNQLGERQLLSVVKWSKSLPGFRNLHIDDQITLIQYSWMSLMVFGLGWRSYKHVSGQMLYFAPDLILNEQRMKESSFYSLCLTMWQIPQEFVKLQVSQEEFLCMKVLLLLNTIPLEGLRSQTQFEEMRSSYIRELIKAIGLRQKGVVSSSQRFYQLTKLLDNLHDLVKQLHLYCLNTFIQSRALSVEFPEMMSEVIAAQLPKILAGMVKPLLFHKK", "test": "Nuclear receptor transactivation assay (MMTV-luciferase reporter)", "assay_type": "cell-based", "conditions": "HEK 293 cells, 24 h", "description": "(D) Effect of EDD on response to the synthetic progestin ORG2058. HEK 293 cells were transfected for reporter assay along with a transfection control plasmid (pRL-TK). Cells were harvested for luciferase assay following 24 h treatment with increasing concentrations of ORG2058.\nHEK 293 or COS7 cells were plated in 6-well plates (2×10^5 cells/well) and the medium changed to 2% charcoal-stripped FCS the following day. Transfection was carried out using 3-4 μl Fugene 6 Reagent (Roche) with 1-2 μg DNA comprised of 90 ng receptor expression vector, 450 ng luciferase reporter vector and 1.2 μg EDD, EDDM or SRC-1 cDNAs in either pRcCMV or pSG5, or empty vector, and 200 ng GFP expression vector pGFP20. […] In some experiments cell number was monitored using the CellTiter96® Proliferation Assay (Promega Corp., Madison, USA). Cells in 6-well plates were analysed for GFP expression by fluorescence microscopy to determine transfection efficiency and also used for preparation of protein lysates so that protein expression levels of various constructs could be compared. […] In some experiments pRSV-β-gal or pRL-TK (Promega Corp., Madison, USA) vectors were transfected in place of pGFP20 and transfection efficiency monitored by assaying for β-galactosidase or Renilla luciferase activity respectively."}, "chk2 FHA domain": {"target": "T3, chk2 FHA domain (Homo sapiens, UniProt O96017)", "T3 construct": "made in house; host or cells: GST fusion from E. coli BL21; EDDF5 by coupled in vitro transcription/translation (TNT Quick, Promega)", "T3 sequence (O96017 1-225)": "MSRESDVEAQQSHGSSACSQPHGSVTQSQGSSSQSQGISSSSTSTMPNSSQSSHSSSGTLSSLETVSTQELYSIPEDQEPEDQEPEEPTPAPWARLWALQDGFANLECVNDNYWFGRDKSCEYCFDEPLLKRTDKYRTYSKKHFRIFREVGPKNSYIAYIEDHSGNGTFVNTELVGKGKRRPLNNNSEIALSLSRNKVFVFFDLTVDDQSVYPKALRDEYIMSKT", "test": "GSTchk2-N pull-down of in vitro translated EDD in presence of FHA-binding phosphopeptide", "conditions": "pre-incubation of GSTchk2-N fusion protein with peptide", "experimental": "(D) The phosphopeptide-binding interface of the chk2 FHA domain is required for EDD binding. In vitro translated ^35S-labelled EDD derivative EDDF5 (aa 889-2799) was incubated with GSTchk2-N or GSTchk2-N derivatives containing R117A or I157T substitutions, or with GST alone bound to glutathione-Sepharose beads. The incubations with GSTchk2-N or GSTchk2-N(I157T) were carried out in the presence or absence of an FHA-binding phosphopeptide at 0, 80 or 150 μM. Bound EDD was detected by SDS-PAGE and autoradiography.\nGST-tagged fusion proteins were prepared from E. coli strain BL21 according to established protocols (Pharmacia Protocol Handbook). Soluble fusion proteins were bound to glutathione agarose and quantitated via Coomassie blue staining against protein standards. 35S-labelled EDD protein and mutants or SRC-1 were synthesised in a coupled in vitro transcription/translation system (TNT Quick, Promega) and 10-20 μl reaction mixture was diluted in 1% Triton X-100 lysis buffer (Callaghan et al, Oncogene 17, 3479-3491, 1998) and incubated with 5 μg of GST, GST-importin α5, GST-PR(CDE) or GST-CIB coupled to glutathione agarose beads at 4° C. for 2 h. Beads were collected by centrifugation, washed extensively in lysis buffer and resuspended in SDS-PAGE sample buffer. After boiling, bound protein was visualised following SDS-PAGE and autoradiography. […]"}},
  "note": "“Also recorded” adds a separate entry of the source. Where no end group is shown, it is not given here. [ ]: non-standard residue; d: D form. pT = C[C@@H](OP(=O)(O)O)[C@H](N)C(=O)O",
  "data": [
    {"compound": "phleomycin", "values": [
      {"measurement": "EDD protein levels", "setting": "EDD-CIB interaction; MCF-7 cells after treatment", "value": "unchanged"},
      {"measurement": "association between EDD and CIB", "setting": "EDD-CIB interaction; MCF-7 cells, phleomycin 100 μg/ml 6 h, vs untreated or hydroxyurea-treated cells", "value": "significantly less association between EDD and CIB; also recorded: decrease in the amount of associating EDD"},
      {"measurement": "amount of BRCA2 associated with chk2", "setting": "BRCA2-chk2 interaction", "value": "no effect on the amount of BRCA2 associated with chk2"},
      {"measurement": "mobility and levels of EDD protein", "setting": "EDD-chk2 interaction; MCF-7 nuclear extracts after treatment", "value": "no change in either the mobility or levels of EDD protein"},
      {"measurement": "amount of EDD associating with chk2", "setting": "EDD-chk2 interaction", "value": "considerably reduced; also recorded: diminished; also recorded: Decreased association between EDD and CHK2"}
    ]},
    {"compound": "NC(=O)NO", "note": "[hydroxyurea]", "values": [
      {"measurement": "amount of BRCA2 associated with chk2", "setting": "BRCA2-chk2 interaction", "value": "considerably reduced"},
      {"measurement": "amount of EDD associating with chk2", "setting": "EDD-chk2 interaction", "value": "no effect on the association with EDD"}
    ]},
    {"compound": "CCC1CC2C3CCC4=CC(=O)CCC4C3CCC2(C)C1C(=O)CO", "note": "(centres unmarked) [ORG2058]", "values": [
      {"measurement": "effect of PR ligand on interactions between PR(CDE) and SRC-1 or EDDF1", "setting": "PR(CDE)", "value": "not affected"},
      {"measurement": "ORG2058 concentration at which that maximal response was exceeded", "setting": "PR B; with EDD overexpression", "value": 100, "unit": "pM"},
      {"measurement": "ORG2058 concentration giving maximal response (luciferase activity)", "setting": "PR B; without EDD transfection", "value": 10, "unit": "nM"}
    ]},
    {"compound": "RWFDT(P)YLIRR: phosphopeptide that binds strongly to the FHA domain (RWFD[pT]YLIRR)", "values": [
      {"measurement": "peptide concentration that abolished binding between EDD and chk2-N", "setting": "chk2 FHA domain", "value": "greater than 50 μM"}
    ]}
  ]
}
